Legend:
Hep3B2.1-7 tumor cells = test: Hep3B2.1-7 hepatocellular carcinoma xenograft model; type: in vivo, mouse; settings: CD47×EpCAM_v5 20 mg/kg iv weekly, 4 doses, irinotecan 15 mg/kg ip twice per week
Experimental: Hep3B2.1-7 tumor cells were cultured in EMEM medium supplemented with 10% FBS at 37° C. in an atmosphere containing 5% CO2 in air. Female Balb/c nude mice (Shanghai Lingchang Laboratory Animal Technology Co., Ltd.) of 6-8 weeks in age were inoculated subcutaneously with 8×10^6 cells in 0.1 mL of PBS for tumor development. Once the average tumor volume reached approximately 150-200 mm^3, the animals were randomized to 6 animals per group and started treatment. Irinotecan was administered through intraperitoneal injection twice per week at a dose of 15 mg/kg for a total of 4 doses. CD47×EpCAM_v5 bispecific antibody was administered through bolus tail vein injection at 20 mg/kg weekly for a total of 4 doses. Combination groups followed the same dosing schedule and route of administration as their corresponding monotherapy groups. Tumor volume was measured twice weekly.

DLD-1 tumor cells = test: DLD-1 colorectal cancer xenograft model; type: in vivo, mouse; settings: 5 doses, irinotecan 30 mg/kg ip twice per week
Experimental: DLD-1 tumor cells were cultured in RPMI 1640 medium supplemented with 10% FBS at 37° C. in an atmosphere of 5% CO2 in air. Female Balb/c nude mice (Shanghai Lingchang Laboratory Animal Technology Co., Ltd.) of 6-8 weeks in age were inoculated subcutaneously with 5×10^6 cells in 0.1 mL PBS for tumor development. Once the average tumor volume reached approximately 150-200 mm^3, the animals were randomized to 6 animals per group and started treatment. Oxaliplatin and 5-fluorouracil (5-FU) were administered through intraperitoneal injection three times per week at a dose of 8 mg/kg and 35 mg/kg, respectively. A total of 4 doses of oxaliplatin and 5 doses of 5-FU were given. Irinotecan was administered through intraperitoneal injection twice per week at a dose of 30 mg/kg for a total of 6 doses. CD47×EpCAM_v5 bispecific antibody was administered through bolus tail vein injection at 20 mg/kg weekly for a total of 5 doses. For the combination groups, the route and dosing schedule were the same as in the single agent treatment groups. Tumor volume was measured twice weekly.
DLD-1 xenograft model was established as described in Example 13. Treatment was initiated once the average tumor volume reached approximately 150-200 mm^3. Irinotecan was administered through intraperitoneal injection twice per week at a dose of 30 mg/kg for a total of 5 doses. […]

Compound: CCc1c2c(nc3ccc(OC(=O)N4CCC(N5CCCCC5)CC4)cc13)-c1cc3c(c(=O)n1C2)COC(=O)[C@]3(O)CC [irinotecan, reference compound]
- Tumor growth in Hep3B2.1-7 model, single agent (Hep3B2.1-7 tumor cells): slowed tumor growth but did not inhibit it
- Tumor growth in DLD-1 model, single agent (Example 13) (DLD-1 tumor cells; CD47×EpCAM_v5 20 mg/kg iv weekly, 6 doses): not very effective
- Tumor growth in DLD-1 model, single agent (Example 14) (DLD-1 tumor cells; antibodies 20 mg/kg iv weekly): partial tumor growth inhibition
